Data reported in US9029364B2, “2,5-disubstituted thiomorpholine orexin receptor antagonists” (Merck Sharp & Dohme Corp., priority 2011, dated 2015).
pKi: −log10 of the molar value.

target: human orexin-2 receptor (Homo sapiens (Human), UniProt O43614); assay: radioligand binding assay, orexin-2 receptor (hOX2 Bind hKi); details: membranes from CHO cells expressing OX2 receptor
Description: In a typical experiment the OX1 and OX2 receptor antagonistic activity of the compounds of the present invention was determined in accordance with the following experimental method. For intracellular calcium measurements, Chinese hamster ovary (CHO) cells expressing the rat orexin-1 receptor or the human orexin-2 receptor, are grown in Iscove's modified DMEM containing 2 mM L-glutamine, […], 1% hypoxanthine-thymidine supplement, 100 U/ml penicillin, 100 μg/ml streptomycin and 10% heat-inactivated fetal calf serum (FCS). The cells are seeded at 20,000 cells/well into Becton-Dickinson black 384-well clear bottom sterile plates coated with poly-D-lysine. All reagents were from GIBCO-Invitrogen Corp. The seeded plates are incubated overnight at 37° C. and 5% CO2. Ala-6,12 human orexin-A as the agonist is prepared as a 1 mM stock solution in 1% bovine serum albumin (BSA) and diluted in assay buffer (HBSS containing 20 mM HEPES, 0.1% BSA and 2.5 mM probenecid, pH7.4) for use in the assay at a final concentration of 70 pM. Test compounds are prepared as 10 mM stock solution in DMSO, then diluted in 384-well plates, first in DMSO, then assay buffer. On the day of the assay, cells are washed 3 times with 100 μl assay buffer and then incubated for 60 min (37° C., 5% CO2) in 60 μl assay buffer containing 1 μM Fluo-4AM ester, 0.02% pluronic acid, and 1% BSA. The dye loading solution is then aspirated and cells are washed 3 times with 100 μl assay buffer. 30 μl of that same buffer is left in each well. Within the Fluorescent Imaging Plate Reader (FLIPR, Molecular Devices), test compounds are added to the plate in a volume of 25 μl, incubated for 5 min and finally 25 μl of agonist is added. Fluorescence is measured for each well at 1 second intervals for 5 minutes and the height of each fluorescence peak is compared to the height of the fluorescence peak induced by 70 pM Ala-6,12 orexin-A with buffer in place of antagonist. For each antagonist, IC50 value (the concentration of compound needed to inhibit 50% of the agonist response) is determined. Alternatively, compound potency can be assessed by a radioligand binding assay (described in Bergman et. al. Bioorg. Med. Chem. Lett. 2008, 18, 1425-1430) in which the inhibition constant (Ki) is determined in membranes prepared from CHO cells expressing either the OX1 or OX2 receptor. The intrinsic orexin receptor antagonist activity of a compound which may be used in the present invention may be determined by these assays.
The following tables show representative data for the compounds of the Examples as orexin receptor antagonists as determined by the foregoing assays wherein the hOX2 Ki is a measure of the ability of the test compound to inhibit the action of the human orexin-2 receptor and the hOX1R is a measure of the ability of the test compound to inhibit the action of the rat orexin-1 receptor.

Chain of human orexin-2 receptor (O43614 whole entry): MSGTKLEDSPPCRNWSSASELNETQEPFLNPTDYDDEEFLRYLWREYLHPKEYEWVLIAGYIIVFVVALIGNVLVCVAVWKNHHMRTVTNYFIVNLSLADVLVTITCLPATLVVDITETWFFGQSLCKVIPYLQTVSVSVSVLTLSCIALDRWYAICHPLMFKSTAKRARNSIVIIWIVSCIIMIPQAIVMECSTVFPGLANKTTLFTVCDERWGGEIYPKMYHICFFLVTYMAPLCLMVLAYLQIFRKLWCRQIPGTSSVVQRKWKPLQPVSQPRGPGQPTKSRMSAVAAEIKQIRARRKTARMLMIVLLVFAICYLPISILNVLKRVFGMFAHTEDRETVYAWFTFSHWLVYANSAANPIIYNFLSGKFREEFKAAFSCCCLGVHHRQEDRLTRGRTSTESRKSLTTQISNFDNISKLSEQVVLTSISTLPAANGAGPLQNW

| Structure (SMILES) | pKi |
| --- | --- |
| Cc1ccc(-n2nccn2)c(C(=O)N2C[C@H](COc3ccc(F)cn3)SC[C@H]2C)c1 [Example 1, [(2R,5R)-2-{[(5-Fluoropyridin-2-yl)oxy]methyl}-5-methylthiomorpholin-4-yl][5-methyl-2-(2H-1,2,3-triazol-2-yl)phenyl]methanone] | 9.42 |
| C[C@@H]1CS[C@@H](COc2ccccn2)CN1C(=O)c1ccccc1-n1nccn1 [Example 2, (2R,5R)-5-methyl-2-[(pyridin-2-yloxy)methy1]-4-{[2-(2H-1,2,3-triazol-2-yl)phenyl]carbonyl} thiomorpholine] | 7.82 |
| C[C@@H]1CS[C@@H](COc2ccc(F)cn2)CN1C(=O)c1ccccc1-n1nccn1 [Example 3, (2R,5R)-2-{[(5-fluoropyridin-2-yl)oxy]methyl}-5-methy1-4-{[2-(2H-1,2,3-triazol-2-yl)phenyl]carbonyl} thiomorpholine] | 9.05 |
| Cc1ccc(OC[C@H]2CN(C(=O)c3ccccc3-n3nccn3)[C@H](C)CS2)nc1 [Example 4, (2R,5R)-5-methyl-2-{[(5-methylpyridin-2-yl)oxy]methyl}-4-{[2-(2H-1,2,3-triazol-2-yl)phenyl]carbonyl} thiomorpholine] | 8.01 |
| C[C@@H]1CS[C@@H](COc2ccc(Cl)cn2)CN1C(=O)c1ccccc1-n1nccn1 [Example 5, (2R,5R)-2-{[(5-chloropyridin-2-yl)oxy]methyl}-5-methyl-4-{[2-(2H-1,2,3-triazol-2-yl)phenyl]carbonyl} thiomorpholine] | 8.77 |
| C[C@@H]1CS[C@@H](COc2ccc(C#N)cn2)CN1C(=O)c1ccccc1-n1nccn1 [Example 6, 6-{[(2R,5R)-5-methy1-4-{[2-(2H-1,2,3-triazol-2-yl)phenyl]carbonyl}thiomorpholin-2-yl]methoxy}pyridine-3-carbonitrile] | 7.33 |
| C[C@@H]1CS[C@@H](COc2ccc(C(F)(F)F)cn2)CN1C(=O)c1ccccc1-n1nccn1 [Example 7, (2R,5R)-5-methyl-4-{[2-(2H-1,2,3-triazol-2-yl)phenyl]carbonyl}-2-({[5-(trifluoromethyl)pyridin-2-yl]oxy}methyl)thiomorpholine] | 7.18 |
| C[C@@H]1CS[C@@H](COc2ncccc2Cl)CN1C(=O)c1ccccc1-n1nccn1 [Example 8, (2R,5R)-2-{[(3-chloropyridin-2-yl)oxy]methyl}-5-methyl-4-{[2-(2H-1,2,3-triazol-2-yl)phenyl]carbonyl} thiomorpholine] | 8.60 |
| C[C@@H]1CS[C@@H](COc2ncccc2C#N)CN1C(=O)c1ccccc1-n1nccn1 [Example 9, 2-{[(2R,5R)-5-methy1-4-{[2-(2H-1,2,3-triazol-2-yl)phenyl]carbonyl}thiomorpholin-2-yl]methoxy}pyridine-3-carbonitrile] | 6.82 |
| Cc1ccnc(OC[C@H]2CN(C(=O)c3ccccc3-n3nccn3)[C@H](C)CS2)c1 [Example 10, (2R,5R)-5-methyl-2-{[(4-methylpyridin-2-yl)oxy]methyl}-4-{[2-(2H-1,2,3-triazol-2-yl)phenyl]carbonyl} thiomorpholine] | 6.72 |
| C[C@@H]1CS[C@@H](COc2ncccn2)CN1C(=O)c1ccccc1-n1nccn1 [Example 11, (2R,5R)-5-methyl-2-[(pyrimidin-2-yloxy)methy1]-4-{[2-(2H-1,2,3-triazol-2-yl)phenyl]carbonyl} thiomorpholine] | < 5.33 |
| Cc1nc(OC[C@H]2CN(C(=O)c3ccccc3-n3nccn3)[C@H](C)CS2)ncc1Cl [Example 12, (2R,5R)-2-{[(5-chloro-4-methylpyrimidin-2-yl)oxy]methyl}-5-methyl-4-{[2-(2H-1,2,3-triazol-2-yl)phenyl]carbonyl} thiomorpholine] | 7.49 |
| Cc1cnc(OC[C@H]2CN(C(=O)c3ccccc3-n3nccn3)[C@H](C)CS2)nc1Cl [Example 13, (2R,5R)-2-{[(4-chloro-5-methylpyrimidin-2-yl)oxy]methyl}-5-methyl-4-{[2-(2H-1,2,3-triazol-2-yl)phenyl]carbonyl} thiomorpholine] | 8.13 |
| COc1cnc(OC[C@H]2CN(C(=O)c3ccccc3-n3nccn3)[C@H](C)CS2)nc1Cl [Example 14, (2R,5R)-2-{[(4-chloro-5-methoxypyrimidin-2-yl)oxy]methyl}-5-methyl-4-{[2-(2H-1,2,3-triazol-2-yl)phenyl]carbonyl} thiomorpholine] | 6.81 |
| C[C@@H]1C[S+]([O-])[C@@H](COc2ccc(F)cn2)CN1C(=O)c1ccccc1-n1nccn1 (stereo partly drawn) [Example 15, [(2R,5R)-2-{[(5-Fluoropyridin-2-yl)oxy]methyl}-5-methyl-1-oxidothiomorpholin-4-yl][2-(2H-1,2,3-triazol-2-yl)phenyl]methanone] | 6.77 |
| C[C@@H]1CS[C@@H](CSc2ccccn2)CN1C(=O)c1ccccc1-n1nccn1 [Example 17, {(2R,5R)-5-Methyl-2-[(pyridine-2-ylsulfanyl)methyl]thiomorpholin-4-yl}[2-(2H-1,2,3-triazol-2-yl)phenyl]methanone] | 7.01 |
